Drawing on patent US20250019377A1 (JACOBIO PHARMACEUTICALS CO., LTD, priority 2021, published 2025), this text covers IC50 for eight compounds.

The target of experiment [1] is T1, K-Ras G13D (Homo sapiens, UniProt P01116, G13D). Put plainly: GTP-K-Ras and cRAF interaction assay (GppNp-K-Ras), K-Ras G13D. The note with it: read-out: K-Ras G13D GppNp Biochemical Activity (IC50).
Experiment [2] addresses T2, K-Ras G12C (Homo sapiens, UniProt P01116, G12C). Put plainly: SOS1 catalyzed nucleotide exchange assay (GDP form K-Ras), K-Ras G12C. The note with it: read-out: K-Ras G12C GDP Biochemical Activity (IC50).
In experiment [3] the target is T3, K-Ras Q61H (Homo sapiens, UniProt P01116, Q61H). Nature of the experiment: GTP-K-Ras and cRAF interaction assay (GppNp-K-Ras), K-Ras Q61H. Conditions: read-out: K-Ras Q61H GppNp Biochemical Activity (IC50).
T3 sequence (P01116 1-169 isoform P01116-2 Q61H): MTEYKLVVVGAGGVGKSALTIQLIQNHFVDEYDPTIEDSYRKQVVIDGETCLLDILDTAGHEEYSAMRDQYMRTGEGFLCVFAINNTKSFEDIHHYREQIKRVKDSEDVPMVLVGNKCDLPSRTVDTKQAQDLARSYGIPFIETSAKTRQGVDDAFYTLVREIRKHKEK
Experiment [4] deals with T2, K-Ras G12C. Nature of the experiment: GTP-K-Ras and cRAF interaction assay (GppNp-K-Ras), K-Ras G12C. The note with it: read-out: K-Ras G12C GppNp Biochemical Activity (IC50).
In experiment [5] the target is T4, K-Ras G12D (Homo sapiens, UniProt P01116, G12D). Put plainly: GTP-K-Ras and cRAF interaction assay (GppNp-K-Ras), K-Ras G12D. Conditions: read-out: K-Ras G12D GppNp Biochemical Activity (IC50).
T4 sequence (P01116 1-169 isoform P01116-2 G12D): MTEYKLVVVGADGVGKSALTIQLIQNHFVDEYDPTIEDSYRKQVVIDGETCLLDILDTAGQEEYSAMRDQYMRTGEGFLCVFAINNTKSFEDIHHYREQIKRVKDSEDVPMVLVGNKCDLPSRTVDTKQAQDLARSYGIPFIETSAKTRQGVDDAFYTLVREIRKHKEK
Experiment [6] has as its target T5, K-Ras G12A (Homo sapiens, UniProt P01116, G12A). Nature of the experiment: GTP-K-Ras and cRAF interaction assay (GppNp-K-Ras), K-Ras G12A. Conditions: read-out: K-Ras G12A GppNp Biochemical Activity (IC50).
Experiment [7] has as its target T6, K-Ras G12V (Homo sapiens, UniProt P01116, G12V). Nature of the experiment: SOS1 catalyzed nucleotide exchange assay (GDP form K-Ras), K-Ras G12V. The note with it: read-out: K-Ras G12V GDP Biochemical Activity (IC50).
In experiment [8] the target is T7, K-Ras WT (Homo sapiens, UniProt P01116). Nature of the experiment: SOS1 catalyzed nucleotide exchange assay (GDP form K-Ras), K-Ras WT. Conditions: read-out: K-Ras WT GDP Biochemical Activity (IC50).
T7 sequence (P01116 1-169 isoform P01116-2): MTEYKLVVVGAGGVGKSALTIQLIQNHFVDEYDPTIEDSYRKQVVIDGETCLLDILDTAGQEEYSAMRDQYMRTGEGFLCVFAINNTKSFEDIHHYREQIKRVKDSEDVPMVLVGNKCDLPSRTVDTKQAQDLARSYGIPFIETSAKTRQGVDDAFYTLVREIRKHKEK
The target in experiment [9] is T3, K-Ras Q61H. Nature of the experiment: SOS1 catalyzed nucleotide exchange assay (GDP form K-Ras), K-Ras Q61H. The note with it: read-out: K-Ras Q61H GDP Biochemical Activity (IC50).
Experiment [10] deals with T7, K-Ras WT. Put plainly: GTP-K-Ras and cRAF interaction assay (GppNp-K-Ras), K-Ras WT. The note with it: read-out: K-Ras WT GppNp Biochemical Activity (IC50).
For experiment [11], the target named is T8, K-Ras G12R (Homo sapiens, UniProt P01116, G12R). Put plainly: GTP-K-Ras and cRAF interaction assay (GppNp-K-Ras), K-Ras G12R. Conditions: read-out: K-Ras G12R GppNp Biochemical Activity (IC50).
T8 sequence (P01116 1-169 isoform P01116-2 G12R): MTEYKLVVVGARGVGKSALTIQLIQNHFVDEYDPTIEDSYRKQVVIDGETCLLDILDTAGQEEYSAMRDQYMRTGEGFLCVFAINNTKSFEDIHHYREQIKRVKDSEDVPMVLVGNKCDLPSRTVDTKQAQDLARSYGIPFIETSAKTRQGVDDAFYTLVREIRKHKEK
The target of experiment [12] is T8, K-Ras G12R. Put plainly: SOS1 catalyzed nucleotide exchange assay (GDP form K-Ras), K-Ras G12R. Conditions: read-out: K-Ras G12R GDP Biochemical Activity (IC50).
Experiment [13] addresses T5, K-Ras G12A. Put plainly: SOS1 catalyzed nucleotide exchange assay (GDP form K-Ras), K-Ras G12A. The note with it: read-out: K-Ras G12A GDP Biochemical Activity (IC50).
In experiment [14] the target is T1, K-Ras G13D.
Experiment [15] has as its target T6, K-Ras G12V. Put plainly: GTP-K-Ras and cRAF interaction assay (GppNp-K-Ras), K-Ras G12V. The note with it: read-out: K-Ras G12V GppNp Biochemical Activity (IC50).
Experiment [16] has as its target T4, K-Ras G12D.
The subject of another experiment is AGS cells (K-Ras G12D). Nature of the experiment: 2D cell growth inhibition assay, AGS. Format: cell-based. The note with it: Homo sapiens, 144 h, 6 days, absolute IC50.
Another experiment deals with SW620 cells (K-Ras G12V). Put plainly: 2D cell growth inhibition assay, SW620. Type of experiment: cell-based. The note with it: Homo sapiens, SW-620, 144 h, 6 days, absolute IC50.
Experiment [17] concerns AsPC-1 cells (K-Ras G12D). Put plainly: 2D cell growth inhibition assay, AsPC-1. Format: cell-based. The note with it: Homo sapiens, ASPC1, 144 h, AsPC-1, K-Ras G12D, 6 days, absolute IC50.
The subject of experiment [18] is p-ERK in AGS cells (K-Ras G12D). Nature of the experiment: Phospho-ERK1/2(THR202/TYR204) HTRF assay, AGS. Type of experiment: cell-based. The note with it: Homo sapiens, 2 h, 2 hours incubation. A general note: TR-FRET usually uses a lanthanide donor and a delayed reading to cut background.
For experiment [19], the system named is p-ERK in SW620 cells (K-Ras G12V). Put plainly: Phospho-ERK1/2(THR202/TYR204) HTRF assay, SW620. Format: cell-based. The note with it: Homo sapiens, SW-620, 2 h, 2 hours incubation.
The target of experiment [20] is T1, K-Ras G13D. Put plainly: biochemical.
Experiment [21] concerns the target T4, K-Ras G12D. Nature of the experiment: biochemical.
In experiment [22] the target is T6, K-Ras G12V. Put plainly: biochemical.
Experiment [23] has as its target T4, K-Ras G12D. Nature of the experiment: biochemical. This is another data set of the same source.
The target of experiment [24] is T1, K-Ras G13D. Nature of the experiment: biochemical. This is another data set of the same source.
Experiment [25] has as its target T7, K-Ras WT. Put plainly: biochemical.

Where “and” joins values, the source holds several entries; their conditions need not be identical. Identical values can stand only once. Like-named read-outs stand apart in the source and are kept apart here.

T6 sequence (P01116 1-169 isoform P01116-2 G12V): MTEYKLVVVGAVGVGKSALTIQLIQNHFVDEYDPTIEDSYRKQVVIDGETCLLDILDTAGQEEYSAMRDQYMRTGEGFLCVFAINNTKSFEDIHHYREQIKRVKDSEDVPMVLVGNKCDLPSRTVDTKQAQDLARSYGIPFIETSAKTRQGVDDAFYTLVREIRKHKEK
T1 sequence (P01116 1-169 isoform P01116-2 G13D): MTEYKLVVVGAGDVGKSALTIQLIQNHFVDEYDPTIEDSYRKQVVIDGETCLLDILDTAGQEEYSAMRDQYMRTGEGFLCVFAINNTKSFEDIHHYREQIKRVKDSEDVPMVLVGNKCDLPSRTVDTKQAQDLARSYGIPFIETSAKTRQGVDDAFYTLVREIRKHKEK
T2 sequence (P01116 1-169 isoform P01116-2 G12C): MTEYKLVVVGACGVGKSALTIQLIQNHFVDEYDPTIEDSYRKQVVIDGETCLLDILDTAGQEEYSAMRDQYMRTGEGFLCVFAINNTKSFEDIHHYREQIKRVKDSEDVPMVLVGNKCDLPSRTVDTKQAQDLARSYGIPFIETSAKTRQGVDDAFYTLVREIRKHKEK
T5 sequence (P01116 1-169 isoform P01116-2 G12A): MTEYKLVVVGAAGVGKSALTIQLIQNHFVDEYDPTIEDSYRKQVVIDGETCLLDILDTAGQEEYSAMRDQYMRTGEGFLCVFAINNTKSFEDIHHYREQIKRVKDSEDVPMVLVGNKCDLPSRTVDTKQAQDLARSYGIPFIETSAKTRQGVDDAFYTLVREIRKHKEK

For `C#Cc1c(F)ccc2cc(O)cc(-c3c(Cl)cc4c(N5CCCOCC5)nc(OC[C@@]56CCCN5C[C@H](F)C6)nc4c3F)c12` (atropisomer, axis not shown; (M)) [Compound 19B, (M)-4-(6-chloro-8-fluoro-2-(((2R,7aS)-2-fluorotetrahydro-1H-pyrrolizin-7a(5H)-yl)methoxy)-4-(1,4-oxazepan-4-yl)quinazolin-7-yl)-5-ethynyl-6-fluoronaphthalen-2-ol trifluoroacetic acid], the 50% inhibitory concentration (IC50) at K-Ras G13D [1] is 7.88 nM; on K-Ras G12C [2], 3.69 nM; on K-Ras Q61H [3] it was 212 nM; on K-Ras G12C [4] it was 302 nM; at K-Ras G12D [5] it was 57 nM; at K-Ras G12A [6], 493 nM. In addition, the IC50 was 5.27 nM at K-Ras G12V [7]; 8.72 nM on K-Ras WT [8]; 6.65 nM at K-Ras Q61H [9]; 183 nM on K-Ras WT [10]; 95.9 nM at K-Ras G12R [11]; 3.17 nM on K-Ras G12R [12]. The IC50 at K-Ras G12A [13] amounted to 15.7 nM; against K-Ras G13D [14], 14.4 nM; at K-Ras G12V [15], 136 nM; on K-Ras G12D [16] it was 5.62 nM.

Consider `C#Cc1c(F)ccc2cc(O)cc(-c3ncc4c(N5CCOC[C@H](CC#N)C5)nc(OC[C@@]56CCCN5C[C@H](F)C6)nc4c3F)c12` (single isomer, unassigned) [Compound 14B], for which the IC50 on K-Ras G13D [1] stood at 1.87 nM; in the experiment on AGS cells (K-Ras G12D), 49.7 nM; in the experiment with SW620 cells (K-Ras G12V), 207 nM; in [17] it was 708 nM; on K-Ras G12D [5], 7.31 nM; in experiment [18] it was 22.9 nM. In addition, the IC50 on K-Ras G12V [7] was found to be 0.515 nM; at K-Ras WT [8], 0.882 nM; in experiment [19], 112 nM; at K-Ras WT [10], 15.8 nM; against K-Ras G13D [14] it was 2.76 nM; at K-Ras G12V [15] it was 158 nM. This compound yielded a half-maximal inhibitory concentration (IC50) at K-Ras G12D [16] of 0.739 nM.

For the compound `C#Cc1c(F)ccc2cc(O)cc(-c3ncc4c(N5CCCOC[C@@H]5C)nc(OC[C@@]56CCCN5C[C@H](F)C6)nc4c3F)c12` (single isomer, unassigned) [Compound 16A], the IC50 on K-Ras G13D [1] stood at 37.2 nM; in the experiment with AGS cells (K-Ras G12D) it was 242 nM; in the experiment with SW620 cells (K-Ras G12V), 191 nM; in experiment [17] it was 1380 nM; at K-Ras G12D [5] it was 315 nM; in [18], 42.6 nM. Further, the IC50 turned out to be 6.05 nM on K-Ras G12V [7]; 3.88 nM on K-Ras WT [8]; 40.5 nM in [19]; 741 nM at K-Ras WT [10]; 14.2 nM on K-Ras G13D [14]; 469 nM on K-Ras G12V [15]. Besides, 3.78 nM corresponded to half-maximal inhibition on K-Ras G12D [16] (IC50).

As for `C#Cc1c(F)ccc2cc(O)cc(-c3ncc4c(N5CCOCC(C)(O)C5)nc(OC[C@@]56CCCN5C[C@H](F)C6)nc4c3F)c12` (stereo partly drawn) [Compound 23, 4-(7-(8-ethynyl-7-fluoro-3-hydroxynaphthalen-1-yl)-8-fluoro-2-(((2R,7aS)-2-fluorotetrahydro-1H-pyrrolizin-7a(5H)-yl)methoxy)pyrido[4,3-d]pyrimidin-4-yl)-6-methyl-1,4-oxazepan-6-ol trifluoroacetic acid], the 50% inhibitory concentration (IC50) was more than 100 nM against K-Ras G13D [20]; 1.99 nM on K-Ras G12D [21]; 40.1 nM in the experiment on AGS cells (K-Ras G12D); 196 nM in the experiment with SW620 cells (K-Ras G12V); 693 nM in experiment [17]; 33.8 nM in experiment [18]. Moreover, the IC50 was 2.75 nM at K-Ras G12V [7]; 3.18 nM on K-Ras WT [8]; 239 nM on K-Ras G12V [22]; 138 nM in [19]; approximately 100 nM against K-Ras G12D [23]; more than 100 nM on K-Ras G13D [24]. Further, the IC50 against K-Ras WT [25] is 134 nM.

Consider `C#Cc1c(F)ccc2cc(O)cc(-c3ncc4c(N5CCOCC(C)(OC)C5)nc(OC[C@@]56CCCN5C[C@H](F)C6)nc4c3F)c12` (stereo partly drawn) [Compound 109, 5-ethynyl-6-fluoro-4-(8-fluoro-2-(((2R,7aS)-2-fluorotetrahydro-1H-pyrrolizin-7a(5H)-yl)methoxy)-4-(6-methoxy-6-methyl-1,4-oxazepan-4-yl)pyrido[4,3-d]pyrimidin-7-yl)naphthalen-2-ol], for which the IC50 was 29.3 nM against K-Ras G13D [20]; 203 nM in [18]; 4.95 nM and 39 nM at K-Ras G12V [7]; 14.4 nM and 67.9 nM at K-Ras WT [8]; 2220 nM and > 10000 nM at K-Ras G12V [22]; 238 nM in [19]. Further, the IC50 at K-Ras G12D [23] was 916 nM and 8230 nM; against K-Ras G13D [24], more than 100 nM; against K-Ras WT [25], 1260 nM.

Regarding `Oc1cc2c(c(-c3ncc4c(N5CCCOCC5)nc(OC[C@@]56CCCN5C[C@H](F)C6)nc4c3F)c1)N(CC(F)F)CCC2` [Compound 126, 1-(2,2-difluoroethyl)-8-(8-fluoro-2-(((2R,7aS)-2-fluorotetrahydro-1H-pyrrolizin-7a(5H)-yl)methoxy)-4-(1,4-oxazepan-4-yl)pyrido[4,3-d]pyrimidin-7-yl)-1,2,3,4-tetrahydroquinolin-6-ol], the IC50 at K-Ras G12D [21] is 76.7 nM; on K-Ras G12V [7], 84.6 nM; on K-Ras G12V [22] it was more than 1000 nM; on K-Ras G12D [23], more than 1000 nM.

Turning to `C#Cc1c(F)ccc2cc(O)cc(-c3nc([S+](C)[O-])c4c(N5CCCOCC5)nc(OC[C@@]56CCCN5C[C@H](F)C6)nc4c3F)c12` (stereo partly drawn) [Compound 127, 5-ethynyl-6-fluoro-4-(8-fluoro-2-(((2R,7aS)-2-fluorotetrahydro-1H-pyrrolizin-7a(5H)-yl)methoxy)-5-(methylsulfinyl)-4-(1,4-oxazepan-4-yl)pyrido[4,3-d]pyrimidin-7-yl)naphthalen-2-ol], the 50% inhibitory concentration (IC50) at K-Ras G12D [21] was 93.1 nM; at K-Ras G12V [7], 88.5 nM; at K-Ras G12V [22], more than 1000 nM; at K-Ras G12D [23], more than 1000 nM.

Consider `C#Cc1c(F)ccc2cc(O)cc(-c3nc(C#N)c4c(N5CCCOCC5)nc(OC[C@@]56CCCN5C[C@H](F)C6)nc4c3F)c12` [Compound 129, 7-(8-ethynyl-7-fluoro-3-hydroxynaphthalen-1-yl)-8-fluoro-2-(((2R,7aS)-2-fluorotetra-hydro-1H-pyrrolizin-7a(5H)-yl)methoxy)-4-(1,4-oxazepan-4-yl)pyrido[4,3-d] pyrimidine-5-carbonitrile], for which the half-inhibitory concentration (IC50) was 9.63 nM against K-Ras G12D [21]; 521 nM in the experiment on AGS cells (K-Ras G12D); 1070 nM in [17]; 83.1 nM in experiment [18]; 19.8 nM on K-Ras G12V [7]; more than 1000 nM against K-Ras G12V [22]. Moreover, the IC50 against K-Ras G12D [23] is more than 1000 nM.

Broadly, the IC50 is the point on the concentration scale where inhibition reaches its midpoint.
